Source: patent publication US12576074B2, “Kits and methods for induction of cardioversion in subjects with atrial arrhythmias” (InCarda Therapeutics, Inc., priority 2020, dated 2026)
“And” between values parts separate entries of the source, which are not always exact repeats. Equal values may be shown once. Read-outs that look alike come from different tables or passages of the source.

Legend:
[1] = molecular target: L-type calcium channels (ICaL), CaV1.2 channels (Homo sapiens, UniProt Q13936); details: cited from earlier work
L-type calcium channels (ICaL), CaV1.2 channels, sequence (Q13936 whole entry): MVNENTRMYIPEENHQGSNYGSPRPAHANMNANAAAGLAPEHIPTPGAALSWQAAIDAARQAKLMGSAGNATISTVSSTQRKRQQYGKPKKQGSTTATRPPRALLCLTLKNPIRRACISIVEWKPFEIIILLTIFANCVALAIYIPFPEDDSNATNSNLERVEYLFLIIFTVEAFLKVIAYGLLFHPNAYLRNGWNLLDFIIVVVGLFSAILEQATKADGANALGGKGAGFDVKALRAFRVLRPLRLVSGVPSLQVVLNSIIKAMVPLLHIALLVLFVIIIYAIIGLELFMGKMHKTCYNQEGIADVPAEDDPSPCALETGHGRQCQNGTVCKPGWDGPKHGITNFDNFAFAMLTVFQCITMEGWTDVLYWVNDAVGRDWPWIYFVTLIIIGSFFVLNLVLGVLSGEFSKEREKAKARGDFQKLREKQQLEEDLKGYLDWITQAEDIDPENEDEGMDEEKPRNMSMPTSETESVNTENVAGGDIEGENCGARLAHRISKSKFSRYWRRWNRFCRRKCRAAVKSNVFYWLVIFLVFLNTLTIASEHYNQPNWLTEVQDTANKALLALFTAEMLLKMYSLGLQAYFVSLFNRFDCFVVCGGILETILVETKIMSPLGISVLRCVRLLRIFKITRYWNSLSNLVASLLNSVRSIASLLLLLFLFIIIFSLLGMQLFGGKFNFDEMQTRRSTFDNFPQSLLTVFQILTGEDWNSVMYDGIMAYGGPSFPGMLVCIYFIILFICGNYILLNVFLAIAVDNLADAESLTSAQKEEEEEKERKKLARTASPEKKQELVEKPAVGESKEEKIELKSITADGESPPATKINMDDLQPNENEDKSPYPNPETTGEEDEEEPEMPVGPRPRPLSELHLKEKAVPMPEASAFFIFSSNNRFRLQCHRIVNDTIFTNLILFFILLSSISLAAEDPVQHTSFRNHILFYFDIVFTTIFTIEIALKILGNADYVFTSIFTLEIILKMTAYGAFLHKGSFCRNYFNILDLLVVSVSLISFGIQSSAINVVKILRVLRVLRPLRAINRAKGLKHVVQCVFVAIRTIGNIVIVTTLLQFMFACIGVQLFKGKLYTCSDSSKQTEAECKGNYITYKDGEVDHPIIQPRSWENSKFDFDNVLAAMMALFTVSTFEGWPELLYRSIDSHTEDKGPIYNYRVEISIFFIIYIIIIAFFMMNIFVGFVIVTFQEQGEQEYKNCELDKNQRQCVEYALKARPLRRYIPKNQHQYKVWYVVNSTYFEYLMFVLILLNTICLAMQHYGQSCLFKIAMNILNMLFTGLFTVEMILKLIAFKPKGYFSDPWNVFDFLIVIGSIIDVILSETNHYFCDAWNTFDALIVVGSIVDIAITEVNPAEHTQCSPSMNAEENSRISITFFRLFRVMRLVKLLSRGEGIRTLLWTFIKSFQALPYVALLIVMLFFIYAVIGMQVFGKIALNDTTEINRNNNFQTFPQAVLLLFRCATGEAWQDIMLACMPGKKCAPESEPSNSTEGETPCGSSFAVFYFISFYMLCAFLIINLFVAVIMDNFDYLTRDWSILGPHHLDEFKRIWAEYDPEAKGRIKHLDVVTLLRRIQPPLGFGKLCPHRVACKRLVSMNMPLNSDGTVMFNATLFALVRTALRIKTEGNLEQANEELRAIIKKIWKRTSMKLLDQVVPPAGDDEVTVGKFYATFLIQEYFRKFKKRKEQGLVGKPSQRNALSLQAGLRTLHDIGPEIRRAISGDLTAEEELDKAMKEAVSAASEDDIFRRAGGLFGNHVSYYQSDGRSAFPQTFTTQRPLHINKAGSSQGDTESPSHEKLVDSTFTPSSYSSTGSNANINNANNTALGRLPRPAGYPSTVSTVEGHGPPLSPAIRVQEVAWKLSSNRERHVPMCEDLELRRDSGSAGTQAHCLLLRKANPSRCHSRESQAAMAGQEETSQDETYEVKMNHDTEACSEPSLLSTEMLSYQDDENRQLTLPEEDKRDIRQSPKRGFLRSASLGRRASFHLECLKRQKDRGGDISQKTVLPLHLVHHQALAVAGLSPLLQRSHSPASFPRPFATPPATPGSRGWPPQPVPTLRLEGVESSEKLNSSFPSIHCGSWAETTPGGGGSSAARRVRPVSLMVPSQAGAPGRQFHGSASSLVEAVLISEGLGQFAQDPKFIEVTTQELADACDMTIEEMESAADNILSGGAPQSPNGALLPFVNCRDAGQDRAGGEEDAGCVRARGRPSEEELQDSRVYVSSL
L-type calcium channels (ICaL), CaV1.2 channels, sequence (Q08289 whole entry partner): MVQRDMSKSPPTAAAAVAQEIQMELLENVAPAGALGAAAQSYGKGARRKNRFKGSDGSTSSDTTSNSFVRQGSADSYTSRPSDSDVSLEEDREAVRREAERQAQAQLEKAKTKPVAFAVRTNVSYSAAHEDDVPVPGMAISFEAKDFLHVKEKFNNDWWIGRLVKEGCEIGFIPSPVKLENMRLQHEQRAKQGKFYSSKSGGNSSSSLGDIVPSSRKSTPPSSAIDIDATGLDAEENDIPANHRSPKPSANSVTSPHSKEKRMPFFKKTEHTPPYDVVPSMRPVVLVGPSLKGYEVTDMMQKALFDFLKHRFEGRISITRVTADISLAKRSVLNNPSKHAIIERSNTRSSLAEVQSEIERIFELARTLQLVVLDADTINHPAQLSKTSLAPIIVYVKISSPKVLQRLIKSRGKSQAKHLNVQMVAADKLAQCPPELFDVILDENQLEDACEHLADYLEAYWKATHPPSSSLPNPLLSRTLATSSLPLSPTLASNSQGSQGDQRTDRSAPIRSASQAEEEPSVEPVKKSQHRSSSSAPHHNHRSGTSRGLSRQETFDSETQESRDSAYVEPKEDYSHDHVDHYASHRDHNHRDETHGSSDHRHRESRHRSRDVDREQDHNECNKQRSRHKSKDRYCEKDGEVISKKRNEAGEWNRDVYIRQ
L-type calcium channels (ICaL), CaV1.2 channels, sequence (P54289 25-956 partner limits assumed): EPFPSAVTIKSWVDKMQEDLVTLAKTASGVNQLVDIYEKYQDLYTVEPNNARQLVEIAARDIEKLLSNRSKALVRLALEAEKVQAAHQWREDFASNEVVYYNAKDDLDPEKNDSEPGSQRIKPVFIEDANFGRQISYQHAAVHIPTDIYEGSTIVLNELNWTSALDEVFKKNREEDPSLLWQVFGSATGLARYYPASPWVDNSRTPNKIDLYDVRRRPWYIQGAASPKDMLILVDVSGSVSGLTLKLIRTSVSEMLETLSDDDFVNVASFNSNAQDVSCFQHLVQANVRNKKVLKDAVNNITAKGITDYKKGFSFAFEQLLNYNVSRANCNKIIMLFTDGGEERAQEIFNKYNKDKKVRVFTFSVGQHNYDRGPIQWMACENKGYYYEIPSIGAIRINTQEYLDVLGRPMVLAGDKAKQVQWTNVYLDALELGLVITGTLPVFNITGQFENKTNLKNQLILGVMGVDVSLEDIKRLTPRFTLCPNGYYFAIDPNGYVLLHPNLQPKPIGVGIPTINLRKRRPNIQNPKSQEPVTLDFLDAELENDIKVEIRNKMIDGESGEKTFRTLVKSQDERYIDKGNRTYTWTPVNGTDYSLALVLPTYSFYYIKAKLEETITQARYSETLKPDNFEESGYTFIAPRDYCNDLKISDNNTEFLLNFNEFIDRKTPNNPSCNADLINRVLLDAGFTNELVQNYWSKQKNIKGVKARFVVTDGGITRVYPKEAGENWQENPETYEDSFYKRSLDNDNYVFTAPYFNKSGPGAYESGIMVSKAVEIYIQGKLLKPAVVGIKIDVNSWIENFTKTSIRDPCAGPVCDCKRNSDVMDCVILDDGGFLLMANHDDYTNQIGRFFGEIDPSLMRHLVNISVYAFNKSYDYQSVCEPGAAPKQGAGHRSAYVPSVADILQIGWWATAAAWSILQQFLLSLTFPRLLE
L-type calcium channels (ICaL), CaV1.2 channels, sequence (P54289 957-1103 partner limits assumed): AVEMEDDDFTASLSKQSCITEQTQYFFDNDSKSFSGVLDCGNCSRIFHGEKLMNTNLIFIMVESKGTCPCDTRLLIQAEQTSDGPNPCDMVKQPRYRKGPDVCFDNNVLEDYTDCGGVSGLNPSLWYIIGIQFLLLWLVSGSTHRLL

[2] = test system: paroxysmal atrial fibrillation; details: average population; cited from earlier work
Sinclair swine [3] = experiment: Electrocardiograms after IV infusion in swine
Description: After the animals were transferred to study, all animals were randomly assigned to treatment groups per the study design described below. This study was designed as a cross-over design with a minimum of 1-week washout between Treatment “A” and Treatment “B”. […] Electrocardiograms (EKGs) were performed prior to infusion and within 30 minutes of dose completion for both “A” and “B” treatments. Infusions were performed under sedation and anesthesia was maintained post-infusion for the duration of the blood collections. Blood was collected following TABLE 5 below: prior to infusion, halfway through infusion, and at 0, 2, 4, 6, 8, 10, 15, 30, 45, 60, and 120 minutes post-infusion completion for both treatment “A” and “B”.
Swine were sedated with target doses of 0.5 mg/kg of midazolam and 25 mg/kg of ketamine (actual doses ranging from […] and 24.83-25.33 mg/kg, respectively), with the exception of one animal which received half the target doses per veterinary instruction (0.26 mg/kg midazolam and 12.67 mg/kg ketamine). Animals were anesthetized with isoflurane (5% for induction, ˜0.5-3% for maintenance) via face mask inhalation for the duration of the infusion and blood collections. All anesthesia and monitoring of vital parameters were performed in accordance with ACL-2011.
All animals underwent an electrocardiogram (EKG) using the EMKA system. EKGs were collected prior to dosing (any time prior to each dose administration) and within 30 minutes completion of each infusion per TLE-2125, Physiological Data Collection for Large Animals Using the emkaPACK4g Acquisition System. ECG waveforms were quantitatively evaluated for heart rate (HR) and PR, QRS, and QT/QTc intervals using a validated ecgAUTO system (v3.5.5, emka TECHNOLOGIES, Paris, France). • QTcB (Bazett's)=QT/RR(1/2) • QTcF (Fridericia)=QT/RR(1/3) • QTcV (Van de Water)=QT−0.087 (RR−1000) Where RR=time between successive beats, measured in milliseconds.

Ito = details: value used in O'Hara-Rudy model; cited from earlier work
[4] = molecular target: ryanodine receptor RyR2 (IRyR) (Homo sapiens, UniProt Q92736); details: cited from earlier work
[5] = molecular target: cardiac voltage-gated sodium channels (Nav1.5 subtype), peak sodium current (Homo sapiens, UniProt Q14524); details: unbinding from bound sodium channels; cited from earlier work
IK1 = molecular target: T1, IK1 (Homo sapiens, UniProt P63252); details: flecainide increases IK1; used to calculate Gk1; cited from earlier work
T1 sequence (P63252 1-427): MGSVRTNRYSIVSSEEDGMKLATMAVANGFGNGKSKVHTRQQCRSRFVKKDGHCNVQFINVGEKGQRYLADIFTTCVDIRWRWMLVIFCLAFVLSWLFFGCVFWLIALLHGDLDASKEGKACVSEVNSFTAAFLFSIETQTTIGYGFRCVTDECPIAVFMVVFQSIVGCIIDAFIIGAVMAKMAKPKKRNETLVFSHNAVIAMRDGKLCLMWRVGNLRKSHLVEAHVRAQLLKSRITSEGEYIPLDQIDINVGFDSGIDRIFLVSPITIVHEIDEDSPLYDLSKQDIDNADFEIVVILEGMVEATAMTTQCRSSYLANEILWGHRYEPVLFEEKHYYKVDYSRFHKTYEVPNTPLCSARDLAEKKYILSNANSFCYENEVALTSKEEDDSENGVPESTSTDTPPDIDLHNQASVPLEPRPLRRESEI

[6] = cited from earlier work
[7] = test system: ACh-mediated AF in isolated arterially-perfused canine right atrium; experiment: Termination of ACh-induced persistent AF in canine isolated coronary-perfused right atrial preparations (Series II); design: species or system canine (Beagles); details: flecainide 1.5 μM, ibutilide 20 nM, ACh 0.5 μM
Description: Experiments were performed using isolated arterially-perfused canine preparations consisting of right atrium with a rim of right ventricle. The hearts were from Beagles approximately 1 year of age and were stored in ice cold cardioplegic solution for approximately 40 minutes before experimentation.
During experiments, transmembrane action potential (AP) recordings (sampling rate 41 kHz) were obtained from the atrium and ventricle using floating glass microelectrodes (10-25 MΩ DC resistance). A pseudo-electrocardiogram (ECG) was recorded using two electrodes consisting of Ag/AgCl half cells placed in the Tyrode's solution, bathing the preparation, 1.0 to 1.2 cm from opposite ends of the atrial coronary-perfused preparations (FIG. 1). […] The diastolic threshold of excitation (DTE) was determined by increasing stimulus intensity in 0.01 mA steps starting from 0.1 mA, until a steady 1:1 activation was achieved. Post-repolarization refractoriness (PRR) was recognized when ERP exceeded APD90 in the ventricle and APD70 in atria. Ventricular ERP coincides with APD90, whereas atrial ERP generally coincides with APD70.
Ventricular electrical activity was monitored for the development of early afterdepolarizations (EADs) and torsade de pointes (TdP).
Stock solutions were made by dissolving test article dry powder in distilled water vehicle. […]

Sinclair swine [8] = experiment: Clinical observations and survival in swine; format: in vivo; details: two animals (one treatment A, one treatment B); deemed due to anesthesia
Text: All animals survived to study completion. Animals underwent clinical observations continuously while the animals are under anesthesia during, pre- and post-dosing through to final blood collection per TXP-1532, Pharmacologic and Toxicological Observations of Experimental Animals, and twice daily per ACL-1974 Receipt, Quarantine and Husbandry of Swine. […] One of the animals in question was during the high-dose treatment (“B”) and was intubated and provided oxygen under the direction of veterinary staff. The other animal was during the low-dose treatment (“A”) and returned to breathing normally without need of additional support. Both of these abnormal events were deemed due to anesthesia.
All animals survived to study completion with no definitive test article clinical observations.

[9] = test system: canine left ventricular wedge preparations; experiment: Canine left ventricular wedge preparation, repolarization/EAD sensitised (Series III); details: ibutilide 50 nM 40 min, then flecainide 1.5 μM 30 min added; 3 mM KCl
Description: Drugs were administered in the order and concentrations specified in TABLE 4.
Canine left ventricular (LV) wedge preparations were excised from the same hearts used to obtain the right atrial preparations.
Panel A: Control. […] The numbers appearing under M APs indicate APD90 values, and those on the ECG recordings indicate QT interval values.

[10] = Treatment A (flecainide 1 mg/kg, ibutilide 0.007 mg/kg or both, IV), individual animal
[11] = Treatment B (flecainide 2 mg/kg, ibutilide 0.014 mg/kg or both, IV), individual animal

Compound | Avg ATcV, baseline-normalized post-infusion (Sinclair swine [3]; [10]) | Avg HR, baseline-normalized post-infusion (Sinclair swine [3]; [10]) | Avg PR, baseline-normalized post-infusion (Sinclair swine [3]; [10]) | Avg QRS, baseline-normalized post-infusion (Sinclair swine [3]; [10]) | Avg QT, baseline-normalized post-infusion (Sinclair swine [3]; [10]) | Avg QTcB, baseline-normalized post-infusion (Sinclair swine [3]; [10]) | Avg QTcF, baseline-normalized post-infusion (Sinclair swine [3]; [10]) | Avg ATcV, baseline-normalized post-infusion (Sinclair swine [3]; Treatment A, group mean) | Avg HR, baseline-normalized post-infusion (Sinclair swine [3]; Treatment A, group mean) | Avg PR, baseline-normalized post-infusion (Sinclair swine [3]; Treatment A, group mean) | Avg QRS, baseline-normalized post-infusion (Sinclair swine [3]; Treatment A, group mean) | Avg QT, baseline-normalized post-infusion (Sinclair swine [3]; Treatment A, group mean) | Avg QTcB, baseline-normalized post-infusion (Sinclair swine [3]; Treatment A, group mean) | Avg QTcF, baseline-normalized post-infusion (Sinclair swine [3]; Treatment A, group mean) | Avg ATcV, baseline-normalized post-infusion (Sinclair swine [3]; [11]) | Avg HR, baseline-normalized post-infusion (Sinclair swine [3]; [11]) | Avg PR, baseline-normalized post-infusion (Sinclair swine [3]; [11]) | Avg QRS, baseline-normalized post-infusion (Sinclair swine [3]; [11]) | Avg QT, baseline-normalized post-infusion (Sinclair swine [3]; [11]) | Avg QTcB, baseline-normalized post-infusion (Sinclair swine [3]; [11]) | further results
[Mg+2] [Mg^2+] |  |  |  |  |  |  |  |  |  |  |  |  |  |  |  |  |  |  |  |  | decrease in ICaL ([1]; ICaL stimulated by cAMP (beta-adrenergic agonists)): about 63%; decrease in ICaL ([1]; basal conditions): about 26%
O=C(NCC1CCCCN1)c1cc(OCC(F)(F)F)ccc1OCC(F)(F)F (stereo not drawn) [Flecainide, N-(piperidin-2-ylmethyl)-2,5-bis(2,2,2-trifluoroethoxy)benzamide] | −4.4% and −6.0% and −2.6% | −7.2% and −26.5% and −9.6% | 22.3% and 17.5% and 8.6% | 0.1% and −1.3% and 3.5% | −3.5% and −1.6% and −1.4% | −7.1% and −15.7% and −6.3% | −5.9% and −11.2% and −4.7% | −4.3% | −14.5% | 16.1% | 0.7% | −2.2% | −9.7% | −7.3% | 11.4% and −2.3% and −1.9% | 0.4% and −18.8% and −13.6% | 13.3% and 9.7% and 24.6% | 4.4% and 3.3% and 18.2% | 12.6% and 2.1% and 0.1% | 12.8% and −8.0% and −6.9% | patients with paroxysmal atrial fibrillation exhibiting resistance to monotherapy [2]: approximately 30%; Avg QTcF, baseline-normalized post-infusion (Sinclair swine [3]; [11]): 12.7% and −4.7% and −4.6%; Avg ATcV, baseline-normalized post-infusion (Sinclair swine [3]; Treatment B, group mean): 2.4%; Avg HR, baseline-normalized post-infusion (Sinclair swine [3]; Treatment B, group mean): −10.7%; Avg PR, baseline-normalized post-infusion (Sinclair swine [3]; Treatment B, group mean): 15.8%; Avg QRS, baseline-normalized post-infusion (Sinclair swine [3]; Treatment B, group mean): 8.7%; Avg QT, baseline-normalized post-infusion (Sinclair swine [3]; Treatment B, group mean): 4.9%; Avg QTcB, baseline-normalized post-infusion (Sinclair swine [3]; Treatment B, group mean): −0.7%; Avg QTcF, baseline-normalized post-infusion (Sinclair swine [3]; Treatment B, group mean): 1.1%; IC50 (Ito): 15.2 µM; IC50 ([4]; read-out: potency for inhibition of RyR2): ~20 µM; IC50 ([4]; value used in O'Hara-Rudy model, read-out: IC50 IRyR): 20 µM; unbinding time τoff [5]: ≈ 20.5 sec; EC50 (IK1): 0.4 µM
CCCCCCCCCCCCCCCC(=O)OC[C@H](COP(=O)([O-])OCC[N+](C)(C)C)OC(=O)CCCCCCCCCCCCCCC [DPPC, dipalmitoylphosphatidylcholine] |  |  |  |  |  |  |  |  |  |  |  |  |  |  |  |  |  |  |  |  | solubility in water [6]: about 10^−10 mol/L
CCCCCCCN(CC)CCCC(O)c1ccc(NS(C)(=O)=O)cc1 (stereo not drawn) [Ibutilide, N-(4-(4-(ethyl(heptyl)amino)-1-hydroxybutyl)phenyl)methanesulfonamide] | 14.4% and 10.5% and 5.0% | −19.5% and −54.7% and −28.7% | 4.8% and 40.7% and 7.1% | 8.2% and 7.3% and 4.9% | 19.9% and 28.1% and 11.7% | 7.5% and −13.4% and −5.8% | 11.5% and −1.4% and −0.3% | 10.0% | −34.3% | 17.5% | 6.8% | 19.9% | −3.9% | 3.3% | 16.1% and 13.1% and 13.6% | −38.3% and −12.7% and −15.4% | 28.2% and 2.9% and 14.7% | 7.7% and 16.8% and 6.5% | 26.6% and 16.3% and 18.3% | −0.6% and 8.5% and 8.9% | termination of ACh-induced persistent AF (preparations terminated out of tested) [7]: 1 out of 3; abnormal clinical observations (Sinclair swine [8]): stopped breathing under anesthesia; Avg QTcF, baseline-normalized post-infusion (Sinclair swine [3]; [11]): 7.8% and 11.0% and 11.9%; Avg ATcV, baseline-normalized post-infusion (Sinclair swine [3]; Treatment B, group mean): 14.3%; Avg HR, baseline-normalized post-infusion (Sinclair swine [3]; Treatment B, group mean): −22.1%; Avg PR, baseline-normalized post-infusion (Sinclair swine [3]; Treatment B, group mean): 15.3%; Avg QRS, baseline-normalized post-infusion (Sinclair swine [3]; Treatment B, group mean): 10.3%; Avg QT, baseline-normalized post-infusion (Sinclair swine [3]; Treatment B, group mean): 20.4%; Avg QTcB, baseline-normalized post-infusion (Sinclair swine [3]; Treatment B, group mean): 5.6%; Avg QTcF, baseline-normalized post-infusion (Sinclair swine [3]; Treatment B, group mean): 10.3%; QT/QTc (QTcV) change post-infusion (Sinclair swine [3]; treatments A/B): increased; effect on repolarization (QT interval, Tpeak-Tend) [9]: significantly prolonged repolarization
